# Results: US7205281B2, “Process for the synchronization of ovulation for timed breeding without heat detection” (priority 2003, dated 2007)
# What was measured:
# Type in all cases: in vivo, swine
# [1] = test system: ovariectomized estrogen primed gilt; test: Dose response study of LH release in ovariectomized estrogen primed gilt model (RIA); details: single injection of 50 mcg in SAIB
# Description: A dose response study was performed using deslorelin in SAIB in an ovariectomized estrogen primed gilt model (Barb, et al. (1999) Proceed. Int'l. Symp. Control. Rel. Bioact. Mater., 26).
# [2] = test system: postpartum sows; test: Pregnancy rate after deslorelin treatment in sows, summary of Tables 2 to 5; details: Table 6
# Description: Approximately 170 postpartum sows were randomly divided into two equal groups comprised of controls and treated. Following weaning, the controls were detected for estrus and bred following the normal standard operating procedures for the farms on which they resided. The treated sows received a 50 mcg dose of deslorelin in SAIB at 96 hours post-weaning and were bred with a single insemination 28+/−2 hours later with no regard to estrus detection. The sows were examined for pregnancy by ultrasound at 21 days and slaughtered around 28 days post breeding. The entire reproductive tract was removed and corpora lutea and embryos were counted. Postpartum sows were randomly distributed into three different groups comprised of Controls, Treatment 1, and Treatment 2, with the exception of Site 3, which was divided into two groups, Control and Treatment 2. Control sows were detected for estrus following weaning, and bred following the normal standard operating procedures for the farms on which they resided. Treatment 1 sows were detected for estrus following weaning, and received a 50 mcg dose of deslorelin in the morning when standing and were bred by AI 4 hours later and again at 24+/−2 hours later. Treatment 2 sows received a 50 mcg dose of deslorelin in SAIB at 96 or 120 hours post-weaning and were bred with a single insemination 28+/−2 hours later with no regard to estrus detection. […]
# [3] = test system: postpartum sows; test: Litter size after deslorelin treatment in postpartum sows at three farm sites (Example 4); details: Tables 3 to 5, regardless of estrus detection
# Text: Postpartum sows were randomly distributed into three different groups comprised of Controls, Treatment 1, and Treatment 2, with the exception of Site 3, which was divided into two groups, Control and Treatment 2. Control sows were detected for estrus following weaning, and bred following the normal standard operating procedures for the farms on which they resided. Treatment 1 sows were detected for estrus following weaning, and received a 50 mcg dose of deslorelin in the morning when standing and were bred by AI 4 hours later and again at 24+/−2 hours later. Treatment 2 sows received a 50 mcg dose of deslorelin in SAIB at 96 or 120 hours post-weaning and were bred with a single insemination 28+/−2 hours later with no regard to estrus detection.
# [4] = test system: mature postpartum sows; test: Deslorelin injected intravulvar at estrus detection with AI breeding in mature postpartum sows (Example 2)
# Description: Sows were assigned randomly in blocks of two to either control or to be injected intravulvar with 50 mcg of deslorelin in SAIB at the time of estrus detection for sows first detected in estrus in the a.m. and 12 hours later for those first detected in estrus in the p.m. Treated animals were bred AI upon detected estrus and again 24 hours later if still in estrus. Controls received a saline injection on first detected estrus behavior estrus detection and were bred according to the farm's normal procedures.
# [5] = test system: postpartum sows; test: Timed deslorelin injection 96 hours post-weaning and single timed insemination without estrus detection (Example 3)
# Description: Approximately 170 postpartum sows were randomly divided into two equal groups comprised of controls and treated. Following weaning, the controls were detected for estrus and bred following the normal standard operating procedures for the farms on which they resided. The treated sows received a 50 mcg dose of deslorelin in SAIB at 96 hours post-weaning and were bred with a single insemination 28+/−2 hours later with no regard to estrus detection. The sows were examined for pregnancy by ultrasound at 21 days and slaughtered around 28 days post breeding. The entire reproductive tract was removed and corpora lutea and embryos were counted.
# [6] = 50 μg deslorelin acetate intravulvar at first estrus detection, AI, AI again if in estrus next day
smiles,measurement,setting,value
"CCNC(=O)[C@@H]1CCCN1C(=O)[C@H](CCCN=C(N)N)NC(=O)[C@H](CC(C)C)NC(=O)[C@@H](Cc1c[nH]c2ccccc12)NC(=O)[C@H](Cc1ccc(O)cc1)NC(=O)[C@H](CO)NC(=O)[C@H](Cc1c[nH]c2ccccc12)NC(=O)[C@H](Cc1cnc[nH]1)NC(=O)[C@@H]1CCC(=O)N1 [Deslorelin, deslorelin]",Time of LH return to base level,[1],≤ 18 h
same,LH peak relative to normal value,[1]; normal value from Hansel et al. 1973,about twice normal value
same,Pregnancy rates,[2],normal pregnancy rates were obtained
same,Litter sizes,[3],normal litter sizes
same,Length of Estrus,[4]; [6],40.81 h
same,Pregnancy Rate,[4]; [6],91%
same,"Pregnancy rates, Control versus Treated",[4]; 50 μg intravulvar at first estrus detection,no significant difference
same,Pregnancy Rate,"[5]; 50 mcg in SAIB 96 hours post-weaning, single insemination 28+/-2 hours later, no estrus detection",71%
same,Sows Pregnant,"[5]; 50 mcg in SAIB 96 hours post-weaning, single insemination 28+/-2 hours later, 84 sows in group, ultrasound at 21 days",60
same,Embryo Survival,"[5]; 50 mcg in SAIB 96 hours post-weaning, slaughter around 28 days post breeding",64%
same,Pregnancy rates,"[5]; single timed injection post-weaning, single timed insemination, no estrus detection",normal pregnancy rates were attained
